According to patent publication US20230391825A1, “ENHANCED SKIN PERMEATION OF A NOVEL PEPTIDE VIA STRUCTURAL MODIFICATION, CHEMICAL ENHANCEMENT, AND MICRONEEDLES” (ESCAPE THERAPEUTICS, INC., priority 2020, published 2023):
Peptide text beside a SMILES is read from it.

What was measured:
[1] = type: in vitro ADME
From the text: Human dermatomed skin was obtained from Science Care (Arizona, USA). The skin tissues were excised from the thighs of two male cadavers with age at death of 66 and 57. The skin samples used in the study were without identifier and exempted from ethical review. The Integrity of cadaver skin was checked using visual inspection before use to ensure no pores or breaks in the skin surface were present. In addition, any compromise in skin integrity was identified through observation of a rapid and large increase in the amount of permeated peptide through the skin at the first sampling time point.
Franz type diffusion cells were used. Human epidermis was mounted between donor and receptor compartments and excessive skin at the sides was trimmed off to minimize lateral diffusion. SC was faced towards the donor compartment and the skin area for permeation was 1.327 square centimeters. The receptor compartment was filled with 5.5 milliliters of 1 millimolar PBS solution containing 1 percent (volume/volume) antibacterial antimycotic solution. Receptor solution was filtered twice to prevent formation of air bubbles beneath the epidermis. […] Permeation was measured over 24 hours.
The amount of peptide permeated was determined using Shimadzu CBM-20A HPLC system with Agilent ODS C18 column (4.6 millimeters x 250 millimeters x 5 microns, 170 Angstroms). […]

human tyrosinase = molecular target: T1, human tyrosinase (Homo sapiens, UniProt P14679); details: cited from earlier work
T1 sequence (P14679 19-529): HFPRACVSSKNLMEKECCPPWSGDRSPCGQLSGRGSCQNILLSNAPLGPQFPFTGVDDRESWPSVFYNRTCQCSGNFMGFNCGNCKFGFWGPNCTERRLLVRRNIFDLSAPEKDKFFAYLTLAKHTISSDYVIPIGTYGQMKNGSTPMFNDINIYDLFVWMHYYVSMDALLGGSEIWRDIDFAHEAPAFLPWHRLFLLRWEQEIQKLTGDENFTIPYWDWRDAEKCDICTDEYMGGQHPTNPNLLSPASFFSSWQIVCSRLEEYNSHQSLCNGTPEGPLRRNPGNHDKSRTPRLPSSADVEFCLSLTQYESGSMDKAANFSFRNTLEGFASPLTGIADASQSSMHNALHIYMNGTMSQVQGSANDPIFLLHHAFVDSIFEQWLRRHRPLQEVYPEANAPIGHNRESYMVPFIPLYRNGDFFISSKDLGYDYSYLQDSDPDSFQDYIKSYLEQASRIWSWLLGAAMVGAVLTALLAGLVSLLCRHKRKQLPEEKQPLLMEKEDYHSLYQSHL

mushroom tyrosinase = details: cited from earlier work
melasma = details: cited from earlier work

Compound: N=C(N)NCCC[C@H](NC(=O)[C@H](CO)NC(=O)[C@H](CCCNC(=N)N)NC(=O)[C@@H](N)Cc1ccc(O)cc1)C(=O)N[C@@H](CCCCN)C(=O)N[C@@H](Cc1ccc(O)cc1)C(=O)N[C@@H](CO)C(=O)N[C@@H](CO)C(=O)N[C@@H](Cc1c[nH]c2ccccc12)C(=O)N[C@@H](Cc1ccc(O)cc1)C(=O)O [Native peptide, decapeptide-12] (H-YRSRKYSSWY-OH)
- Effect of enhancers on skin permeation [1]: didn't alter skin permeation
- Competitive inhibition effect compared with hydroquinone (human tyrosinase): stronger competitive inhibition effect
- Competitive inhibition effect compared with hydroquinone (mushroom tyrosinase): stronger competitive inhibition effect
- Efficacy in reducing content of melanin (melasma; 16 weeks of twice daily treatment): more than 50%
- Safety compared with hydroquinone (melasma; in vivo): safer than hydroquinone
- Effect in treatment of melasma (melasma; studies on humans, topical): good efficacy
